From patent US20190328721A1, “METHOD OF ACTIVATING DENDRITIC CELLS” (KOREA INSTITUTE OF SCIENCE AND TECHNOLOGY, priority 2018, published 2019)

Experiments:
CT26 cancer cells = test: CT26 tumor model; format: in vivo, mice; conditions: fasudil 20 mg/kg; Y27632 10 mg/kg
Experimental: The same procedure as described above was repeated except that CT26 was used instead of the CT26.CL25 colon cancer cell line and fasudil (Selleck Chemicals, USA) at 20 mg/kg of body weight or Y27632 at 10 mg/kg of body weight was administered.

[1] = tested on: bone marrow-derived dendritic cells (BMDC); test: Cross presentation of H-2Kb-Ova by BMDCs in vitro; format: cell-based, mice; conditions: Y27632 30 μM, 1 hour on BMDCs; cancer cells doxorubicin treated or untreated
Experimental: Furthermore, the inventors investigated whether the cross presentation of dendritic cells was promoted by the combination treatment of doxorubicin and Y27632. To this end, the present inventors used 30 μM of Y27632 to pretreat bone marrow-derived dendritic cells (BMDC) stained with CellTracker CMFDA (Thermo Fisher Scientific, USA) for 1 hour, followed by treatment with doxorubicin treated B16F10-Ova cells or doxorubicin untreated B16F10-Ova cells. After the co-culture, floating cancer cells were removed by withdrawing supernatant. Cross presentation activity, which is one of functions of dendritic cells, was analyzed via flow cytometry analysis using an antibody capable of detect a cancer antigen (H-2K^b-Ova) capable of activating T cells, through flow cytometry analysis using an antibody (H-2K^b monoclonal antibody, Invitrogen, USA).

dendritic cells = test: Flow cytometry of dendritic cells from B16F10-Ova-bearing mice (maturation, subsets, cross presentation); format: in vivo
Experimental: To confirm the effect of the ROCK inhibitor Y27632 on the maturation process of dendritic cells, the inventors administered Y27362 to B16F10-Ova-bearing cancer model animals according to the same administration schedule as in Example 2-1, and the expression of CD40 and CD86, which are dendritic cell maturation markers, was analyzed by flow cytometry.
Recently, it has been shown that CD103 (corresponding to CD141 in humans)-positive dendritic cells (CD103 DC) play an important role in cancer cell phagocytosis and T cell anticancer immunity among dendritic cells (Broz et al., Cancer Cell, 26 (5): 638-652, 2014). Therefore, in order to analyze the effect of the ROCK inhibitor on CD103 DC, Y27632 was administered to B16F10-Ova-bearing cancer model mice according to the administration schedule described in the above Example 2-1, tumor tissues and tumor-draining lymph nodes were excised, and then flow cytometry analysis was performed using antibodies specifically binding to dendritic cell markers (CD11b, CD103 and CD8). It was confirmed that the ratio of CD103 DC was increased by Y27632 in both the tumor-draining lymph nodes (FIG. 15A) and the tumor tissues (FIG. 15B). On the other hand, in the case of CD11b-positive and CD8-positive dendritic cells, no change due to administration of Y27632 was observed.
The present inventors analyzed cross presentation activity which is one of functions of dendritic cells via flow cytometry analysis using an antibody capable of detecting a cancer antigen (H-2K^b-Ova) capable of activating T cells, through flow cytometry analysis using an antibody (H-2K^b monoclonal antibody, Invitrogen, USA). It was confirmed that the cross presentation of CD103 DC was increased by Y27632 in both tumor-draining lymph nodes (FIG. 15C) and tumor tissues (FIG. 15D).
Further, the present inventors analyzed CD40, which is one of the markers of dendritic cell function capable of activating T cells and a DC maturation marker of dendritic cells, by flow cytometry analysis using anti-CD40 antibodies. As shown in FIGS. 15E and 15F, it was confirmed that the maturation of CD103 DC was increased by Y27632 in the tumor-draining lymph nodes.
The present inventors analyzed a series of immunological induction processes occurring after the phagocytosis against cancer cells or cancer-specific antigens in order to analyze the mechanism of the combination therapy for the anti-cancer immune response. Specifically, in order to confirm the effect of the combination therapy on the dendritic cell maturation, Y27632 and doxorubicin were administered to B16F10-Ova-bearing cancer model mice as described above, and then tumor-draining lymph nodes were isolated and the expression of CD40 and CD86, which are dendritic cell maturation markers, was analyzed by flow cytometry analysis.
Further, in order to confirm the effect of the combined treatment on the cross presentation process to the dendritic cells, the present inventors administered Y27632 and doxorubicin to B16F10-Ova-bearing cancer model mice as described above, isolated the tumor-draining lymph nodes, and then cross presentation activity, which is one of functions of dendritic cells, was analyzed via flow cytometry analysis using an antibody capable of detect a cancer antigen (H-2K^b-Ova) capable of activating T cells, through flow cytometry analysis using an antibody (H-2K^b monoclonal antibody, Invitrogen, USA).
The present inventors then investigated the effect of the combination of the drugs on the maturation process of dendritic cells. Specifically, the tumor-draining lymph nodes were isolated after administration of Y27632 and/or cisplatin in the B16F10-Ova-bearing cancer model, and the expression level of CD40 and CD86, the dendritic cell maturation markers, was analyzed by flow cytometry. As shown in FIG. 19C and 19D, there was no influence on the maturation of dendritic cells when Y27632 alone, cisplatin alone, or the combination of the two were administered (FIGS. 19C and 19D). […]

MMTV/Neu mice tumors = test: Spontaneous cancer development model; format: in vivo
Experimental: The survival rate was recorded over up to 100 days. When the size of tumor was over 2,500 mm^3, the animal was euthanized (FIG. 20C).
Specifically, fluorescence immunohistochemical analysis was performed using anti-CD8 antibodies in the cancer tissues after the end of the experiment.
Accordingly, the present inventors investigated whether the combination of the drugs can increase the anti-cancer immunity even in the spontaneous cancer development model. […] After completion of the experiment, the present inventors isolated the spleen cells and treated with peptide against rat-Neu, an antigen expressed in the cancer of the spontaneous cancer development model, and after 48 hours, the culture supernatant was collected and IFN-γ was quantified using an ELISA kit (R&D Systems, Inc, USA).

[2] = tested on: CT26.CL25 colon cancer cells expressing mCherry; test: Phagocytosis of mCherry-expressing cancer cells in the tumor model; format: in vivo, mice; conditions: conditions of Example 2-3
Experimental: In order to confirm whether or not the ROCK inhibitor Y27632 induces cancer cell phagocytosis in a tumor model, CT26.CL25 colon cancer cells expressing mCherry were prepared and used to create a tumor model by injecting tumor cells into mice, and it was analyzed whether phagocytosis of macrophages and dendritic cells against cancer cells expressing mCherry was increased under the same conditions as in Example 2-3.

[3] = tumor-draining lymph nodes, cisplatin study
[4] = tumor-draining lymph nodes, doxorubicin 5 mg/kg, Y27632 10 mg/kg

C[C@@H](N)[C@H]1CC[C@H](C(=O)Nc2ccncc2)CC1 [Y27632]
growth of cancer (size of the tumor) (CT26 cancer cells): inhibited the growth of cancer
cross presentation (H-2Kb-Ova) of BMDCs co-cultured with B16F10-Ova cells [1]: increased the cross-presentation
ratio of CD8-positive dendritic cells (dendritic cells; mouse, in vivo): no change
ratio of CD11b-positive dendritic cells (dendritic cells; mouse, in vivo): no change
cross presentation (H-2Kb-Ova) of CD103 DC (dendritic cells; tumor tissues): increased
ratio of CD103 DC (dendritic cells; tumor tissues): increased
expression of CD40 and CD86 in dendritic cells (dendritic cells; tumor-draining lymph node, schedule of Example 2-1): did not affect
cross presentation (H-2Kb-Ova) of CD103 DC (dendritic cells; tumor-draining lymph nodes): increased
cross-presentation (H-2Kb-Ova) in CD8 DCs (dendritic cells; tumor-draining lymph nodes): increased
maturation of CD103 DC (CD40) (dendritic cells; tumor-draining lymph nodes): increased
ratio of CD103 DC (dendritic cells; tumor-draining lymph nodes): increased
cross-presentation function (H-2Kb-Ova) of dendritic cells (dendritic cells; [3]): increase
maturation of dendritic cells (CD40 and CD86) (dendritic cells; [3]): no influence
antigenic cross presentation (H-2Kb-Ova) in the dendritic cells (dendritic cells; [4]): did not significantly increase
dendritic cell maturation (expression of CD40 and CD86) (dendritic cells; [4]): no effect
anti-cancer immunity (IFN-γ of spleen cells treated with rat-Neu peptide) (MMTV/Neu mice tumors; 48 hours): increased
CD8+ T cells in tumor tissues (infiltration) (MMTV/Neu mice tumors; anti-CD8 fluorescence immunohistochemistry): some T cell infiltration
phagocytosis of tumor dendritic cells against cancer cells expressing mCherry [2]: increased about two-fold
phagocytosis of tumor macrophages against cancer cells expressing mCherry [2]: increased about two-fold
